Assay results as given in patent publication US7608619B2, “Substituted oxazole compounds with analgesic activity” (Gruenenthal GmbH, priority 2005, dated 2009).

Biological target: T1, human μ-opiate receptor (Homo sapiens, UniProt P35372)
T1 construct: purchased Nen company, Zaventem, Belgium RB-HOM; host or cells: CHO-K1 cells (membrane preparation)
Assay: Affinity for the human μ-opiate receptor ([3H]-naloxone displacement, SPA, CHO-K1 membrane preparation)
Conditions: test substance 1 μmole/l; displacement of 1 nmole/l [3H]-naloxone; percentage inhibition of the specific binding
Procedure, shortened: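 [3H]-naloxone (1 nmol/l) displacement by SPA with WGA beads, using membranes of CHO-K1 cells expressing the receptor, in 50 mmol/l Tris-HCl with 0.05% azide and 0.06% BSA; 90 min at room temperature. Non-specific binding defined with 25 μmol/l naloxone. Value is % inhibition of specific binding at 1 μmol/l test compound.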

T1 sequence (P35372 whole entry): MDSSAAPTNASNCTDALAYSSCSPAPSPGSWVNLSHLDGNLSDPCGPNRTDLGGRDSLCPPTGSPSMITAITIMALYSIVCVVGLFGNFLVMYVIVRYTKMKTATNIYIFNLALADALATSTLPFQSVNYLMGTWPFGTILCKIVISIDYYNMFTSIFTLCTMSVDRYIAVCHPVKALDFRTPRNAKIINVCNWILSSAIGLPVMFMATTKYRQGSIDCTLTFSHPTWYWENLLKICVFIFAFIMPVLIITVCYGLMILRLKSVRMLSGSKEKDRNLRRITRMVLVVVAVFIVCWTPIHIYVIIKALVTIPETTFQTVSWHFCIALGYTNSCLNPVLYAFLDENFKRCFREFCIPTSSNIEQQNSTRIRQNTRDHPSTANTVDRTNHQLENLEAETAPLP

SMILES | μ-opioid receptor, % inhibition [1 μM]
CN(CCc1ccccc1)c1oc(C(CC2CCC(C(c3ccc(F)cc3)N(C)C)CC2)N(C)c2ccccc2)nc1Cc1ccccc1 (stereo not drawn) [compound 102, {4-benzyl-2-[2-{4-[dimethylamino-(4-fluorophenyl)-methyl]-cyclohexyl}-1-(methylphenylamine)-ethyl]-oxazol-5-yl}-methylphenethylamine] | 77%
CCN(CC)c1oc(C(CC2CCC(C(c3ccc(F)cc3)N(C)C)CC2)N(C)c2ccccc2)nc1Cc1ccccc1 (stereo not drawn) [compound 103, {4-benzyl-2-[2-{4-[dimethylamino-(4-fluorophenyl)-methyl]-cyclohexyl}-1-(methylphenylamine)-ethyl]-oxazol-5-yl}-diethylamine] | 79%

Same assay, conditions: test substance 1 μmole/l; displacement of 1 nmole/l [3H]-naloxone; percentage inhibition of the specific binding; read-out: μ-opioid receptor, % inhibition [1 μM]

SMILES | inhibition at 1 µM
CCN(CC)C(CC1CCC(C(c2cccs2)N(C)C)CC1)c1nc(Cc2ccccc2)c(N2CCC(C)CC2)o1 (stereo not drawn) [compound 79, {1-[4-benzyl-5-(4-methylpiperidin-1-yl)-oxazol-2-yl]-2-[4-(dimethylamino-thiophen-2-yl-methyl)-cyclohexyl]-ethyl}-diethylamine] | 97%
CCN(CC)C(CC1CCC(C(c2cccs2)N(C)C)CC1)c1nc(Cc2ccccc2)c(N(C)Cc2ccccc2)o1 (stereo not drawn) [compound 80, Benzyl-(4-benzyl-2-{1-diethylamino-2-[4-(dimethylaminothiophen-2-yl-methyl)-cyclohexyl]-ethyl)-oxazol-5-yl)-methylamine] | 93%
CN(C)C(c1cccs1)C1CCC(CC(c2nc(Cc3ccccc3)c(N3CCC(Cc4ccccc4)CC3)o2)N2CCN(Cc3ccccc3)CC2)CC1 (stereo not drawn) [compound 81, ({4-[2-[4-benzyl-5-(4-benzyl-piperidin-1-yl)-oxazol-2-yl]-2-(4-benzyl-piperazin-1-yl)-ethyl]-cyclohexyl}-thiophen-2-yl-methyl)-dimethylamine] | 81%
CN(C)C(c1cccs1)C1CCC(CC(c2nc(Cc3ccccc3)c(N3CCN(Cc4ccccc4)CC3)o2)N2CCN(Cc3ccccc3)CC2)CC1 (stereo not drawn) [compound 82, ({4-[2-[4-benzyl-5-(4-benzylpiperazin-1-yl)-oxazol-2-yl]-2-(4-benzyl-piperazin-1-yl)-ethyl]-cyclohexyl}-thiophen-2-yl-methyl)-dimethylamine] | 83%
CC1CCN(c2oc(C(CC3CCC(C(c4cccs4)N(C)C)CC3)N3CCN(Cc4ccccc4)CC3)nc2Cc2ccccc2)CC1 (stereo not drawn) [compound 83, ({4-[2-[4-benzyl-5-(4-methylpiperidin-1-yl)-oxazol-2-yl]-2-(4-benzyl-piperazin-1-yl)-ethyl]-cyclohexyl}-thiophen-2-yl-methyl)-dimethylamine] | 97%
CN(Cc1ccccc1)c1oc(C(CC2CCC(C(c3cccs3)N(C)C)CC2)N2CCN(Cc3ccccc3)CC2)nc1Cc1ccccc1 (stereo not drawn) [compound 84, Benzyl-(4-benzyl-2-{1-(4-benzyl-piperazin-1-yl)-2-[4-(dimethylamino-thiophen-2-yl-methyl)-cyclohexyl]-ethyl}-oxazol-5-yl)-methylamine] | 88%
CN(C)C(c1cccs1)C1CCC(CC(c2nc(Cc3ccccc3)c(N3CCN(c4ccccc4)CC3)o2)N2CCN(Cc3ccccc3)CC2)CC1 (stereo not drawn) [compound 85, ({4-[2-[4-benzyl-5-(4-phenyl-piperazin-1-yl)-oxazol-2-yl]-2-(4-benzyl-piperazin-1-yl)-ethyl]-cyclohexyl}-thiophen-2-yl-methyl)-dimethylamine] | 91%
CN(CCc1ccccc1)c1oc(C(CC2CCC(C(c3ccc(Cl)cc3)N(C)C)CC2)N2CCCCC2)nc1Cc1ccccc1 (stereo not drawn) [compound 86, [4-benzyl-2-(2-{4-[(4-chlorophenyl)-dimethylaminomethyl]-cyclohexyl}-1-piperidin-1-yl-ethyl)-oxazol-5-yl]-methylphenethylamine] | 63%
CCN(CC)c1oc(C(CC2CCC(C(c3ccc(Cl)cc3)N(C)C)CC2)N2CCCCC2)nc1Cc1ccccc1 (stereo not drawn) [compound 87, [4-benzyl-2-(2-{4-[(4-chlorophenyl)-dimethylaminomethyl]-cyclohexyl}-1-piperidin-1-yl-ethyl)-oxazol-5-yl]-diethylamine] | 64%
CCN(CC)C(CC1CCC(C(c2ccc(Cl)cc2)N(C)C)CC1)c1nc(Cc2ccccc2)c(N2CC(C)CC(C)C2)o1 (stereo not drawn) [compound 88, (1-[4-benzyl-5-(3,5-dimethylpiperidin-1-yl)-oxazol-2-yl]-2-{4-[(4-chlorophenyl)-dimethylaminomethyl]-cyclohexyl}-ethyl)-diethylamine] | 79%
CCN(CC)C(CC1CCC(C(c2ccc(Cl)cc2)N(C)C)CC1)c1nc(Cc2ccccc2)c(N(C)CCc2ccccc2)o1 (stereo not drawn) [compound 89, [4-benzyl-2-(2-{4-[(4-chlorophenyl)-dimethylaminomethyl]-cyclohexyl}-1-diethylaminoethyl)-oxazol-5-yl]-methyl-phenethylamine] | 87%
CCN(CC)c1oc(C(CC2CCC(C(c3ccc(Cl)cc3)N(C)C)CC2)N(CC)CC)nc1Cc1ccccc1 (stereo not drawn) [compound 90, [4-benzyl-2-(2-{4-[(4-chlorophenyl)-dimethylaminomethyl]-cyclohexyl}-1-diethylaminoethyl)-oxazol-5-yl]-diethylamine] | 89%
CCN(CC)C(CC1CCC(C(c2ccc(Cl)cc2)N(C)C)CC1)c1nc(Cc2ccccc2)c(N2CCSCC2)o1 (stereo not drawn) [compound 91, (1-(4-benzyl-5-thiomorpholin-4-yl-oxazol-2-yl)-2-{4-[(4-chlorophenyl)-dimethylaminomethyl]-cyclohexyl}-ethyl)-diethylamine] | 75%
CN(C)C(c1ccc(Cl)cc1)C1CCC(CC(c2nc(Cc3ccccc3)c(N3CCSCC3)o2)N(C)c2ccccc2)CC1 (stereo not drawn) [compound 92, (1-(4-benzyl-5-thiomorpholin-4-yl-oxazol-2-yl)-2-{4-[(4-chlorophenyl)-dimethylaminomethyl]-cyclohexyl}-ethyl)-methylphenylamine] | 87%
CN(CCc1ccccc1)c1oc(C(CC2CCC(C(c3ccc(Cl)cc3)N(C)C)CC2)N2CCN(Cc3ccccc3)CC2)nc1Cc1ccccc1 (stereo not drawn) [compound 93, [4-Benzyl-2-(1-(4-benzylpiperazin-1-yl)-2-{4-[(4-chlorophenyl)-dimethylaminomethyl]-cyclohexyl}-ethyl)-oxazol-5-yl]-methylphenethyl-amine] | 66%
CCN(CC)c1oc(C(CC2CCC(C(c3ccc(Cl)cc3)N(C)C)CC2)N2CCN(Cc3ccccc3)CC2)nc1Cc1ccccc1 (stereo not drawn) [compound 94, [4-benzyl-2-(1-(4-benzylpiperazin-1-yl)-2-{4-[(4-chlorophenyl)-dimethylaminomethyl]-cyclohexyl}-ethyl)-oxazol-5-yl]-diethylamine] | 74%
CN(CCc1ccccc1)c1oc(C(CC2CCC(C(c3ccc(F)cc3)N(C)C)CC2)N2CCCCC2)nc1Cc1ccccc1 (stereo not drawn) [compound 95, [4-benzyl-2-(2-{4-[dimethylamino-(4-fluorophenyl)-methyl]-cyclohexyl}-1-piperidin-1-yl-ethyl)-oxazol-5-yl]-methylphenethylamine] | 65%
CCN(CC)C(CC1CCC(C(c2ccc(F)cc2)N(C)C)CC1)c1nc(Cc2ccccc2)c(N2CC(C)CC(C)C2)o1 (stereo not drawn) [compound 96, (1-[4-benzyl-5-(3,5-dimethylpiperidin-1-yl)-oxazol-2-yl]-2-{4-[dimethylamino-(4-fluorophenyl)-methyl]-cyclohexyl}-ethyl)-diethylamine] | 80%
CCN(CC)C(CC1CCC(C(c2ccc(F)cc2)N(C)C)CC1)c1nc(Cc2ccccc2)c(N(C)CCc2ccccc2)o1 (stereo not drawn) [compound 97, [4-benzyl-2-(1-diethylamino-2-{4-[dimethylamino-(4-fluorophenyl)-methyl]-cyclohexyl}-ethyl)-oxazol-5-yl]-methylphenethylamine] | 85%
CCN(CC)c1oc(C(CC2CCC(C(c3ccc(F)cc3)N(C)C)CC2)N(CC)CC)nc1Cc1ccccc1 (stereo not drawn) [compound 98, [4-benzyl-2-(1-diethylamino-2-{4-[dimethylamino-(4-fluorophenyl)-methyl]-cyclohexyl}-ethyl)-oxazol-5-yl]-diethylamine] | 77%
CCN(CC)C(CC1CCC(C(c2ccc(F)cc2)N(C)C)CC1)c1nc(Cc2ccccc2)c(N2CCSCC2)o1 (stereo not drawn) [compound 99, (1-(4-benzyl-5-thiomorpholin-4-yl-oxazol-2-yl)-2-{4-[dimethylamino-(4-fluorophenyl)-methyl]-cyclohexyl}-ethyl)-diethylamine] | 62%
CCN(CC)C(CC1CCC(C(c2ccc(F)cc2)N(C)C)CC1)c1nc(Cc2ccccc2)c(N2CCCC(C)C2)o1 (stereo not drawn) [compound 100, (1-[4-benzyl-5-(3-methylpiperidin-1-yl)-oxazol-2-yl]-2-{4-[dimethylamino-(4-fluorophenyl)-methyl]-cyclohexyl}-ethyl)-diethylamine] | 86%
CC1CC(C)CN(c2oc(C(CC3CCC(C(c4ccc(F)cc4)N(C)C)CC3)N(C)c3ccccc3)nc2Cc2ccccc2)C1 (stereo not drawn) [compound 101, (1-[4-benzyl-5-(3,5-dimethylpiperidin-1-yl)-oxazol-2-yl]-2-{4-[dimethylamino-(4-fluorophenyl)-methyl]-cyclohexyl}-ethyl)-methylphenylamine] | 68%
CN(C)C(c1ccc(F)cc1)C1CCC(CC(c2nc(Cc3ccccc3)c(N3CCSCC3)o2)N(C)c2ccccc2)CC1 (stereo not drawn) [compound 104, (1-(4-benzyl-5-thiomorpholin-4-yl-oxazol-2-yl)-2-{4-[dimethylamino-(4-fluorophenyl)-methyl]-cyclohexyl}-ethyl)-methylphenylamine] | 89%
CC1CCCN(c2oc(C(CC3CCC(C(c4ccc(F)cc4)N(C)C)CC3)N(C)c3ccccc3)nc2Cc2ccccc2)C1 (stereo not drawn) [compound 105, (1-[4-benzyl-5-(3-methylpiperidin-1-yl)-oxazol-2-yl]-2-{4-[dimethylamino-(4-fluorophenyl)-methyl]-cyclohexyl}-ethyl)-methylphenylamine] | 71%
